Source: US9370541B2, “Extract of the above-ground portions of gynandropsis gynandra or cleome gynandra, and cosmetic, dermatological or pharmaceutical compositions including same” (LABORATOIRES EXPANSCIENCE, priority 2010, dated 2016)

Assays:
interleukin 8 (IL8) = assay: Production of IL8 by PMA-stimulated keratinocytes (NCTC-2544), ELISA; type: cell-based, Human; details: 10^−7 M Dexamethasone, 0.1 μg/ml PMA 24 hours
Description: At the end of the treatment, the quantities of interleukin 8 (IL8) and prostaglandin E2 (PGE2) secreted were measured by ELISA in the culture supernatants. The results were analyzed statistically by a Student's t-test.

Normal human adipocytes = assay: Lipogenesis in adipocytes ([14C]-acetate incorporation); type: cell-based; details: 20 μM of cerulenin
Description: Normal human adipocytes were incubated for 1 hour in the presence of the extract of Gynandropsis gynandra (GG) at a concentration of 0.02% (w/v of active material) or the reference (20 μM of cerulenin). After incubation, the radioactive label [^14C]-acetate was added and the samples were incubated overnight.
At the end of incubation, the lipids were extracted and the radioactivity incorporated (corresponding to the lipogenesis) was measured by liquid scintillation.
(§1) The results were analyzed statistically by a Student's t-test.

[1] = tested on: Normal human epidermal melanocytes; assay: Melanin production by melanocytes; type: cell-based; details: 10^−7 M NDP-MSH alone (stimulated control); 240 hours
Description: After incubation, melanin was extracted from the cells and was quantified by spectrophotometry.
as §1

Mastocytes = assay: Release of histamine by mastocytes stimulated by substance P, ELISA; type: cell-based; details: 10 nM Calcium; 10 μM substance P, 15 minutes
Description: Mastocytes were preincubated for 30 minutes in the presence of the extract of Gynandropsis gynandra (GG) at a concentration of 0.08% (w/v of active material) or 10 Mm of calcium (reference inhibitor of histamine release).
The mastocytes were then stimulated with 10 μM of substance P for 15 minutes. At the end of incubation, the histamine released was quantified by ELISA.
as §1

[2] = tested on: Normal human keratinocytes; assay: Keratinocyte migration after artificial wound; type: cell-based; details: 10 ng/ml of EGF
Description: An artificial wound was prepared on a monolayer of normal human keratinocytes.
At 0, 24, 48 and 72 hours, keratinocyte migration was monitored by microphotography and was quantified by measuring the surface area of the wound.
as §1

prostaglandin E2 (PGE2) = assay: Production of PGE2 by PMA-stimulated keratinocytes (NCTC-2544), ELISA; type: cell-based, Human; details: 10^−6 M Indomethacin, 0.1 μg/ml PMA 24 hours
[3] = tested on: Normal human keratinocytes; assay: Production of ROS in keratinocytes treated with H2O2 (H2DCF-DA probe); type: cell-based; details: 10 μg/ml vitamin C, 24 hours, 100 μM H2O2, 20 minutes
Description: The keratinocytes were then stimulated with 100 μM of hydrogen peroxide (H2O2) for 20 minutes. The production of reactive oxygen species (ROS) was evaluated by measuring fluorescence. The results were analyzed statistically by a Student's t-test.

[4] = tested on: Cells of the Jurkat cell line; assay: UV-induced lipid peroxidation (flow cytometry); type: cell-based; details: 100 μM BHT; UVA+B irradiation
Description: Cells of the Jurkat cell line were preincubated for 45 minutes in the presence of the extract of Gynandropsis gynandra (GG) at a concentration of 0.02% (w/v of active material) or 100 μM of BHT (reference) and in the presence of the fluorescent probe 011-fluorine, specific for lipid peroxidation.
The cells were then irradiated by UVA+B and then incubated for 30 minutes in the presence of GG or BHT.
At the end of incubation, the quantity of lipid peroxides was evaluated by a flow cytometry analysis of fluorescence intensity (inversely proportional to oxidation).
as §1

`C[C@@H]1C[C@H]2[C@@H]3CCC4=CC(=O)C=C[C@]4(C)[C@@]3(F)[C@@H](O)C[C@]2(C)[C@@]1(O)C(=O)CO` [Dexamethasone, dexamethasone] was tested, and the “IL8” value (interleukin 8 (IL8)) was 7.4 ± 0.8 ng/mL and the inhibition at 0.1 µM (interleukin 8 (IL8); Homo sapiens, NCTC-2544) was 85%.
`C/C=C/C/C=C/CCC(=O)[C@H]1O[C@H]1C(N)=O` [cerulenin] was tested, and the “Incorporation of acetate (cpm)” value (Normal human adipocytes) was 14934 ± 671 cpm and the inhibition at 20 µM (Normal human adipocytes; Homo sapiens, Adipocyte) was 55%.
With NDP-MSH the “Melanin (μl/ml)” value [1] was 27.1 ± 0.9 μl/ml and the “Stimulation of melanin production” value [1] was “+108% p < 0.001”.
With `[Ca+2]` [Calcium, calcium] the “Histamine” value (Mastocytes) was 21.8 ± 1.0 ng/mL and the “Inhibition of histamine release” value (Mastocytes) was −85% p < 0.01.
EGF was tested, and the “Migration area (percent of wound covered)” value ([2]; 48 h) was 99 (p < 0.001) percent of wound covered and the “Migration area (percent of wound covered)” value ([2]; 72 h) was 100 (p < 0.001) percent of wound covered.
With `COc1ccc2c(c1)c(CC(=O)O)c(C)n2C(=O)c1ccc(Cl)cc1` [Indomethacin, indomethacin] the “PGE2” value (prostaglandin E2 (PGE2)) was 0.039 ± 0.0 ng/mL and the inhibition at 1 µM (prostaglandin E2 (PGE2); Homo sapiens, NCTC-2544) was 100%.
In the case of `O=C1O[C@H]([C@@H](O)CO)C(O)=C1O` [vitamin C], the “ROS (fluorescence units)” value [3] is reported as 992.83 ± 93.96 fluorescence units and the inhibition at 10 µg/mL ([3]; Homo sapiens, Keratinocyte) is reported as 33%.
For `Cc1cc(C(C)(C)C)c(O)c(C(C)(C)C)c1` [BHT], the “Lipid peroxides (% of irradiated control)” value [4] was 64 % of irradiated control and the “Protection (%)” value [4] was 49% p < 0.01.
